Assay [1] deals with Acinetobacter baumannii. The experiment in a line: Antibiofilm activity against Acinetobacter baumannii preformed biofilms. It is filed as functional, organism-based.
Assay [2] has as its system Staphylococcus aureus. The experiment in a line: Antibiofilm activity against methicillin-resistant Staphylococcus aureus. In kind it is functional, organism-based. As to conditions: Staphylococcus aureus.
The test system of assay [3] is Pseudomonas aeruginosa. In words: Antibiofilm activity against Pseudomonas aeruginosa PA14 assessed as inhibition of biofilm dispersion. In kind it is functional, organism-based.
Assay [4] deals with Bordetella bronchiseptica. In words: Antibiofilm activity against Bordetella bronchiseptica RB50 assessed as inhibition of biofilm dispersion. It is filed as functional, organism-based.
For assay [5], the system named is Staphylococcus aureus. In words: Antibiofilm activity against Staphylococcus aureus at 100 uM relative to control. It is filed as functional.
Assay [6] addresses T1, Sortase A (Staphylococcus aureus, UniProt Q9S446).
T1 sequence (Q9S446 whole entry): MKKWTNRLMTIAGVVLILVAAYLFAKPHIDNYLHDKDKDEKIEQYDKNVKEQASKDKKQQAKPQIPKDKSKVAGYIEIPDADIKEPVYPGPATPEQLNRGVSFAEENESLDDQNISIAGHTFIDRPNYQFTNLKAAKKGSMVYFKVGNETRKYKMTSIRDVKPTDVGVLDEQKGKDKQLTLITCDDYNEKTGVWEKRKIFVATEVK
In words: Inhibition of Staphylococcus aureus SrtA.

Assay [7] deals with Staphylococcus aureus. In words: Antibiofilm activity against methicillin-resistant Staphylococcus aureus isolate 2. It is filed as functional.
Assay [8] has as its system Staphylococcus aureus. The experiment in a line: Antibiofilm activity against methicillin-resistant Staphylococcus aureus BAA-1707. In kind it is functional.
In assay [9] the test system is Staphylococcus aureus. In words: Antibiofilm activity against Staphylococcus aureus ATCC 29213. It is filed as functional, organism-based.
Assay [10] deals with Enterococcus faecalis. The experiment in a line: Antibiofilm activity against Enterococcus faecalis ATCC 29212. In kind it is functional.
Assay [11] deals with Staphylococcus aureus. The experiment in a line: Antibiofilm activity against Staphylococcus aureus BAA-1026. In kind it is functional.
Assay [12] has as its system Staphylococcus aureus. The experiment in a line: Antibiofilm activity against Staphylococcus aureus ATCC 29213 at 25 ug/ml relative to control. It is filed as functional.
Assay [13] concerns Staphylococcus epidermidis. The experiment in a line: Antibiofilm activity against Staphylococcus epidermidis at 25 ug/ml relative to control. It is filed as functional.
The test system of assay [14] is Pseudomonas aeruginosa. The experiment in a line: Antibiofilm activity against Pseudomonas aeruginosa PAO1 assessed as inhibition of biofilm dispersion. It is filed as functional, organism-based.
The test system of assay [15] is Staphylococcus aureus. In words: Antibiofilm activity against methicillin-resistant Staphylococcus aureus ATCC BAA-44. In kind it is functional, organism-based.
For assay [16], the system named is Staphylococcus aureus. The experiment in a line: Antibiofilm activity against methicillin-resistant Staphylococcus aureus BAA-1770. It is filed as functional, organism-based.
The test system of assay [17] is Staphylococcus aureus. In words: Antibiofilm activity against methicillin-resistant Staphylococcus aureus BAA-1685. It is filed as functional, organism-based.
Assay [18] concerns Staphylococcus aureus. The experiment in a line: Antibiofilm activity against methicillin-resistant Staphylococcus aureus ATCC 43300. It is filed as functional, organism-based.

Structures are written as SMILES.

A word on the IC50: it is the concentration needed to halve the response being measured. Take `CCCc1ccc(-c2[nH]c(N)nc2CCCCCc2cn(C/C(C)=C/c3ccccc3)nn2)cc1`: the figures for the IC50 in assay [1] and in assay [2] were 11.3 µM and 1.42 µM, respectively. Take `Nc1nc(CCCNC(=O)c2cc(Br)c(Br)n2CCc2ccccc2)c[nH]1`: the IC50 in assay [3] came to 22.9 µM; in [4] it was 22.5 µM. Consider `CC(=O)/C(=N\Nc1ccc([N+](=O)[O-])cc1)C(=O)O`, for which the Activity in assay [5] is reported as 39.2 - 68.3%. In assay [6], this compound returned a half-inhibitory concentration (IC50) of 50 to 92 µM.

As for `Cc1ccc2c(Br)cc(Br)c(O)c2n1` [BROQUINALDOL], the MBEC in assay [7] came out at 188 µM; in assay [8], 93 µM.

As to `CC(=O)/C(=N\Nc1ccc(Cl)c(Cl)c1)C(=O)O`, the Activity in [5] is on record as 39.2 - 68.3%. The compound also had an IC50 in assay [6] of 50 to 92 µM. With `Cc1cc(C(=O)/C(=N\Nc2ccc(Cl)c(Cl)c2)C(=O)O)no1`, the concentration for half-maximal inhibition (IC50) in [9] is 0.8 µM.

Consider `N#Cc1ccc(-c2csc(-c3ccc(-c4csc(-c5ccccc5)n4)cc3)n2)cc1`, for which the MBEC in assay [10] amounted to 2 µg/mL; in assay [11], 250 µg/mL. The term EC50 denotes the concentration at which the effect is half-maximal. A high value points to lower potency in that assay. As for `C/C(=C\c1cccc2ccccc12)Cn1cc(CCCCCc2c[nH]c(N)n2)nn1`, the EC50 in [1] lay in the range of 44.7 to 59.6 µM; in assay [2], 4.5 to 9.8 µM.

For the compound `CC(=O)/C(=N\Nc1cccc(Cl)c1)C(=O)O`, the Activity in assay [5] is 39.2 - 68.3%. In assay [6], this compound displayed a concentration for half-maximal inhibition (IC50) of 50 to 92 µM. With `NC(=O)c1cc(-c2csc(-c3ccc(-c4csc(-c5ccccc5)n4)cc3)n2)ccc1O`, the MBEC worked out at 8 µg/mL in [10] and 250 µg/mL in assay [11]. Turning to `Cc1nn(C)c([N-]C(=O)c2ccc(Cl)cc2)c1[N+]#N`, the Activity in assay [12] and in assay [13] was 69 - 96% in each case. Consider `CCCCCCNC(=O)CCCc1c[nH]c(N)n1`, for which the half-inhibitory concentration (IC50) in assay [3] was determined as 39.9 µM; in [14] it was 32.7 µM. With `CCCCCCCCNC(=O)CCCc1c[nH]c(N)n1`, the concentration for half-maximal inhibition (IC50) is 13.3 µM in assay [3] and 18.4 µM in [14]. For the compound `O=[N+]([O-])c1ccc(-c2csc(-c3ccc(-c4csc(-c5ccccc5)n4)cc3)n2)cc1`, the MBEC is 2 µg/mL in assay [10] and more than 1000 µg/mL in assay [11].

As to `c1ccc(-c2nc(-c3ccc(-c4nc(-c5cccc6ccccc56)cs4)cc3)cs2)cc1`, the MBEC in assay [10] came to 4 µg/mL; in [11], 250 µg/mL. For `CC(=O)/C(=N\Nc1ccccc1)C(=O)O`, the Activity in assay [5] is given as 39.2 - 68.3%. The same compound gave an IC50 in assay [6] of 50 to 92 µM.

Turning to `O=C1NC(C(Cl)(Cl)Cc2ccccc2)O/C1=C\c1ccc(C(F)(F)F)cc1` (configuration not stated), the IC50 in assay [15] amounted to 1.2 µM. On to `CCCCOc1ccc(/C=C(\C)Cn2cc(CCCCCc3c[nH]c(N)n3)nn2)cc1`, for which the EC50 was in the range of 44.7 to 59.6 µM in assay [1] and 4.5 to 9.8 µM in assay [2]. Regarding `Nc1nc(CCCNC(=O)c2cc(Br)c(Br)n2-c2ccc(Br)cc2)c[nH]1`, the results for the IC50 in assay [3] and in assay [4] were 16.4 µM and 29.3 µM, respectively. With `CCCCCc1ccc(C(=O)NCCn2cc(CCCCCc3c[nH]c(NCc4ccc(CCCC)cc4)n3)nn2)cc1`, the 50% inhibitory concentration (IC50) in assay [16] was found to be 5.9 µM; in assay [17], 5.5 µM; in assay [18], 4.4 µM. On to `COc1cc(N/N=C(\C(C)=O)C(=O)O)cc(OC)c1OC`, for which, in assay [5], the Activity is on record as 39.2 - 68.3%. In assay [6], the IC50 lay in the range of 50 to 92 µM. For the compound `CCOC(=O)/C(=N/Nc1ccc(Cl)c(Cl)c1)C(=O)c1cc(C)nn1CC`, half-maximal inhibition in assay [9] (IC50) required 1.7 µM. Consider `CCCCOc1ccc(Br)c(/C=C(\C)Cn2cc(CCCCCc3c[nH]c(N)n3)nn2)c1F`, for which the EC50 was in the range of 44.7 to 59.6 µM in assay [1] and 4.5 to 9.8 µM in assay [2]. Regarding `Cc1nn(C)c([N-]C(=O)c2ccc(Cl)cc2Cl)c1[N+]#N`, the Activity in assay [12] and in assay [13] was 69 - 96% each time. In the case of `CCCCCCCCCCNC(=O)CCCc1c[nH]c(N)n1`, the IC50 was determined as 6 µM in assay [3] and 8 µM in assay [14]. Regarding `CC(=O)/C(C#N)=N\Nc1ccccc1`, the Activity in assay [5] is 39.2 - 68.3%. Also, in assay [6], the IC50 lay in the range of 50 to 92 µM. For `Clc1ccc(-c2csc(-c3ccc(-c4csc(-c5ccccc5)n4)cc3)n2)cc1`, the MBEC is 16 µg/mL in assay [10] and more than 1000 µg/mL in [11].

The record behind these values is ChEMBL document CHEMBL4325854, “Synthetic small molecules as anti-biofilm agents in the struggle against antibiotic resistance” (Eur J Med Chem, 2019).
